In patent publication EP0868915A1, “An anti-spasmodic and antiinflammatory composition containing a NSAID, pentifenone and fenpiverinium” (PANACEA BIOTEC LIMITED, priority 1997, dated 1998):
Where a name gives a salt, the structure may show the parent alone. Read-outs that look alike come from different tables or passages of the source.

Tested on: distal portion of colon of rat
Experiment: Inhibition of acetylcholine-induced contraction of isolated rat colon (antispasmodic activity)
Details: for inhibition at 0.01 µg/mL: Pitofenone Hcl dose 10 ng/ml; for inhibition at 0.02 µg/mL: Pitofenone Hcl dose 20 ng/ml; for inhibition at 0.04 µg/mL: Pitofenone Hcl dose 40 ng/ml; for inhibition at 0.08 µg/mL: Pitofenone Hcl dose 80 ng/ml; for Percentage inhibition of Ach (100 ng/ml) -Induced contraction After Diclofenac Na: in presence of Diclofenac Sodium 20µ/ml
Method: In order to see the effect of NSAID on the Antispasmodic activity of Pitifenone hydrochloride and Fenpiverinium bromide an experiment was conducted on standard isolated tissues of experimental animal. The tissue chosen for the experiment was the distal portion of colon of rat. The NSAID selected for the experiment was Diclofenac Sodium.
The percentage inhibition of Acetylcholine - induced contraction (at dosage level of 100ng/m) was studied with varied concentration of Pitofenone Hydrochloride in the dose range of 10-80 nano gm/ml.
The percentage inhibition of Acetylcholine -induced contraction (at dosage level of 100ng/ml) was studied with varied concentration of Fenpiverinium bromide in the dose range of 0.5-2 ng/ml.
The experiment was then conducted at the same dose level of Acetylcholine and Fenpiverinium bromide but in the presence of Diclofenac Sodium (dose level 20µ gm/ml). The data obtained in the experiment is collected in Table -2.

[1] = in presence of Diclofenac Sodium 20 µg/ml, read-out: Percentage inhibition of Ach (100 ng/ml) -induced contraction After Diclofenac Na
[2] = read-out: Percentage inhibition of Ach (100 ng/ml) -induced contraction Before Diclofenac Na
[3] = Fenpiverinium Bromide dose 0.5 (ng/ml)
[4] = Fenpiverinium Bromide dose 1.0 (ng/ml)
[5] = Fenpiverinium Bromide dose 2.0 (ng/ml)

O=C(O)Cc1ccccc1Nc1c(Cl)cccc1Cl [Diclofenac, Diclofenac Sodium]
action with Fenpiverinium bromide as an Antispasmodic (Diclofenac Sodium 20 µg/ml): synergistic (potentiating) action
action with Pitofenone Hydrochloride as an Antispasmodic (Diclofenac Sodium 20 µg/ml): synergistic (potentiating) action

COC(=O)c1ccccc1C(=O)c1ccc(OCCN2CCCCC2)cc1 [Pitofenone Hcl, Pitofenone Hydrochloride]
inhibition at 0.01 µg/mL [1]: 100%
inhibition at 0.01 µg/mL [2]: 0%
inhibition at 0.02 µg/mL [1]: 100%
inhibition at 0.02 µg/mL [2]: 0%
inhibition at 0.04 µg/mL [1]: 100%
inhibition at 0.04 µg/mL [2]: 0%
inhibition at 0.08 µg/mL [1]: 100%
inhibition at 0.08 µg/mL [2]: 20.2%

C[N+]1(CCC(C(N)=O)(c2ccccc2)c2ccccc2)CCCCC1 [Fenpiverinium Bromide, Fenpiverinium bromide]
Percentage inhibition of Ach (100 ng/ml) -Induced contraction Before Diclofenac Na [3]: 43.8%
Percentage inhibition of Ach (100 ng/ml) -Induced contraction After Diclofenac Na [3]: 100%
Percentage inhibition of Ach (100 ng/ml) -Induced contraction Before Diclofenac Na [4]: 78.7%
Percentage inhibition of Ach (100 ng/ml) -Induced contraction After Diclofenac Na [4]: 100%
Percentage inhibition of Ach (100 ng/ml) -Induced contraction Before Diclofenac Na [5]: 100%
Percentage inhibition of Ach (100 ng/ml) -Induced contraction After Diclofenac Na [5]: 100%
